Read-outs that look alike come from different tables or passages of the source.
How the values were obtained:
[1] = test system: HIV derived RRE RNA; experiment: heterologous hybridization inhibition assay with RRE RNA; type: binding; conditions: radiolabeled RRE RNA, rRNA competitor
[2] = test system: HBV; experiment: antiviral assay in 2.2.15 cells producing HBV (virion DNA dot blot); type: cell-based, Hepatitis B virus
Source text: Several cell lines and cell culture assays have been developed to identify potential therapeutics effective against chronic HBV infection. One of these cell lines, 2.2.15, has been used in a standardized assay that has repeatedly proven to be an accurate model of chronic cellular HBV replication and a predictive model of antiviral response for chronic hepadnaviral infection in vivo. 2.2.15 cells contain copies of the complete HBV genome integrated into the cell's genome, and 2.2.15 cells are not susceptible to infection by HBV. (Sells, M. A. et al., J. Virol. 62 (8): 2836-2844 (1988)). These cells express HBV genes producing complete HBV particles capable of infecting chimpanzees (Acs, G. et al., Proc. Natl. Acad. Sci. USA 84 (13): 4641-4644 (1987)). Briefly, 2.2.15 cells are cultured and pretreated with a test compound for about 9 days, at which point the media are harvested and subjected to dot-blot hybridization to detect HBV virion DNA.
The antiviral activity of the compounds of the present invention is measured by the methods described in Korba and Gering, Antiviral Res. 19: 55-70 (1992).
This assay format is well suited to the screening of test compounds for potential antiviral activity. The assay provides a threshold assessment of antiviral activity by measuring (i) the levels of HBV virion release from the cells and (ii) cytotoxicity. Two rows of cells were used for each compound, and 4 rows for the assay controls (two for untreated, and two for positive antiviral control, e.g., 3TC). After incubating in the presence of test compound for 9 days, the media were harvested, transferred to 96-well U-bottom plates, and centrifuged. The supernatants were transferred to tubes for dot blot hybridization analysis of HBV virion DNA. The medium was aspirated off of the toxicity plates and discarded. Toxicity plates were then incubated with neutral red dye (MTT can also be used if preferred), washed with DPBS, developed with an acetic acid-ethanol solution, and assayed in a plate reader.
1. 2.2.15 cells were seeded into 96-well, flat bottom tissue culture plates as described above. Duplicate plates were used for the antiviral treatments for each test compound (up to 8 compounds per pair of plates); after three to four days, cells were confluent and medium was yellow in color; the medium was removed and replaced with 100 μl RP2 24 hours before the beginning of drug treatment.
i) For each compound, a total of 4 concentrations were examined; this required 9 sets of 4 sterile, 1.1 ml minitubes (36 tubes per compound). Into the first tube of each set, sufficient compound was aliquoted to make up 700 μl (for 10-fold dilution series) or 980 μl (for 3.3-fold dilution series) of the highest test concentration; the other tubes were left empty.
i) For a 10-fold dilution series: to the first (compound containing) tube was added 700 μl (175 μl×4). 630 μl (210 μl×3) RP2 culture medium was added to the remaining 3 tubes. The first tube was mixed by pipeting up and down with a pipetman (a multichannel pipetman permits the simultaneous processing of multiple compounds). 70 μl of test compound-containing medium were serially transferred from the first tube to the other 3 tubes, taking care to thoroughly mix each tube before transferring medium;
b) 100 μl of each dilution of every compound was added to each of 6 wells (3 wells per plate) using the configuration listed below as an example. The lowest concentration was added first, and the same tips were used to add the higher concentrations. The untreated cells received 100 μl RP2 per well (untreated cells have to be carried on only one pair of the antiviral assay plates).
c) Treatments were repeated daily for 9 days. For the last day of treatment, and additional 200 μl RP2 were added to each well of the antiviral assay plates after the wells are treated with the test compounds (a total of 300 μl medium per well).
6. […]

[3] = extra-cellular virus reduced by 50%, 2.2.15 cells, 9 days treatment, read-out: Antiviral EC50

SMILES	RRE + rRNA IC50 (μM) [1]	EC50 [2, 3] [µM]	also measured
Cc1ccc(Nc2nc(Nc3cccc(C(F)(F)F)c3)nc(N3CCOCC3)n2)cc1C [Compound 251]	inactive	> 100	–
Cc1ccc(Nc2nc(NN=Cc3ccc(Cl)cc3)nc(N3CCOCC3)n2)cc1 [Compound 249]	inactive	> 100	–
CCCCN(CCCC)c1nc(NN=Cc2ccc([N+](=O)[O-])cc2)nc(Nc2ccc([N+](=O)[O-])cc2)n1 [Compound 5]	inactive	0.411	EC90 ([2]; drug alone, Example 3, read-out: 90% viral reduction (EC90)): 1.3 µM
Cc1ccc(Nc2nc(NN=Cc3cc(I)ccc3O)nc(Nc3ccccc3)n2)c(C)c1 [Compound 159]	inactive	0.498	–
FC(F)(F)c1cccc(Nc2nc(Nc3cccc(Cl)c3)nc(N3CCOCC3)n2)c1 [Compound 247]	inactive	> 100	–
Cc1ccc(Nc2nc(NN=Cc3ccc(Cl)cc3)nc(N3CCOCC3)n2)cc1Cl [Compound 196]	inactive	> 100	–
CCN(CC)c1nc(NN=Cc2ccc([N+](=O)[O-])cc2)nc(Nc2ccccc2)n1 [Compound 13]	inactive	8.4	–
Clc1ccc(C=NNc2nc(Nc3ccccc3)nc(N3CCCC3)n2)cc1 [Compound 218]	–	> 100	IC50 [1]: 57.8 µM
COc1ccccc1C=NNc1nc(NCc2ccccc2)nc(Nc2ccccc2)n1 [Compound 195]	inactive	> 100	–
O=C(CSc1nc(SCC(=O)Nc2ccccc2C(F)(F)F)nc(SCC(=O)Nc2ccccc2C(F)(F)F)n1)Nc1ccccc1C(F)(F)F [Compound 212]	inactive	> 100	–
COc1c(Br)cc(Br)cc1C=NNc1nc(Nc2ccccc2)nc(N2CCCCC2)n1 [Compound 14]	inactive	> 100	–
CCN(CC)c1nc(NCc2ccccc2)nc(N/N=C/c2ccccc2O)n1 [Compound 155, 2-hydroxybenzaldehyde N-[4-(benzylamino)-6-(diethylamino)-1,3,5-triazin-2-yl]hydrazone]	inactive	–	EC50 ([2]; Hepatitis B virus, 216 h, read-out: Antiviral EC50 (μM)): 0.063 µM; EC50 ([2]; Hepatitis B virus, 216 h, extra-cellular virus reduced by 50%, 2.2.15 cells, 9 days treatment, read-out: Antiviral EC50): 0.001 µM
Brc1ccc(Nc2nc(NCc3ccccc3)nc(Nc3ccc(Br)cc3)n2)cc1 [Compound 230]	inactive	> 100	–
Cc1ccc(Nc2nc(NCc3ccccc3)nc(NN=Cc3ccc(F)cc3F)n2)cc1C [Compound 191]	inactive	> 100	–
Cc1ccc(Nc2nc(NN=Cc3ccccc3)nc(Nc3ccccc3)n2)c(C)c1 [Compound 7]	Inactive	33	–
Cc1ccc(Nc2nc(NCc3ccccc3)nc(NN=Cc3ccccc3F)n2)cc1C [Compound 228]	inactive	> 100	–
COc1ccc(Nc2nc(NN=Cc3cc(Br)cc(Br)c3O)nc(N3CCOCC3)n2)cc1 [Compound 200]	inactive	> 100	–
Cc1ccccc1Nc1nc(NN=Cc2ccc3c(c2)OCO3)nc(Nc2ccc([N+](=O)[O-])cc2)n1 [Compound 29]	inactive	1.1	–
Cc1ccc(Nc2nc(NN=Cc3ccccc3)nc(Nc3ccccc3)n2)cc1 [Compound 25]	inactive	1	–

SMILES	RRE + rRNA IC50 (μM) [1]	EC50 [2, 3] [µM]	also measured
FC(F)(F)c1cccc(Nc2nc(NN=Cc3ccc(Cl)cc3)nc(N3CCOCC3)n2)c1 [Compound 120]	–	> 100	IC50 [1]: 1110 µM
Cc1ccc(Nc2nc(NCc3ccccc3)nc(Nc3ccc([N+](=O)[O-])cc3)n2)cc1C [Compound 194]	inactive	> 100	–
O=C(NNc1nc(Nc2ccccc2)nc(Nc2cccc(C(F)(F)F)c2)n1)c1cccc(Br)c1 [Compound 220]	–	> 100	IC50 [1]: 918 µM
Oc1ccc2ccccc2c1C=NNc1nc(Nc2cccc3ccccc23)nc(N2CCOCC2)n1 [Compound 167]	inactive	1.7	–
Brc1cccc(C=NNc2nc(Nc3ccccc3)nc(N3CCOCC3)n2)c1 [Compound 163]	inactive	0.958	–
O=[N+]([O-])c1ccc(Nc2nc(NCc3ccccc3)nc(N3CCOCC3)n2)cc1 [Compound 231]	inactive	> 100	–
CN(C)c1nc(NCc2ccccc2)nc(NN=Cc2ccc(Cl)cc2Cl)n1 [Compound 224]	inactive	> 100	–
CCCCN(CCCC)c1nc(NN=Cc2cccc(Cl)c2)nc(Nc2ccc([N+](=O)[O-])cc2)n1 [Compound 35]	inactive	2.3	–
Fc1cccc(C=NNc2nc(Nc3ccccc3)nc(N3CCCC3)n2)c1 [Compound 201]	inactive	> 100	–
Cc1ccc(Nc2nc(NCc3ccccc3)nc(NN=Cc3cc(Cl)ccc3O)n2)cc1C [Compound 226]	–	> 100	IC50 [1]: 422 µM
CCCCN(CCCC)c1nc(N/N=C/c2cc(I)cc(I)c2O)nc(Nc2ccc([N+](=O)[O-])cc2)n1 [Compound 8]	inactive	> 100	–
CCCCN(CCCC)c1nc(NN=Cc2ccc(OCC)c(O)c2)nc(Nc2ccc([N+](=O)[O-])cc2)n1 [Compound 23]	inactive	40	–
Cc1ccc(Nc2nc(NN=Cc3cccc(I)c3)nc(Nc3ccccc3)n2)cc1 [Compound 30]	inactive	54	–
CN(C)c1nc(NCc2ccccc2)nc(NCc2cccs2)n1 [Compound 192]	inactive	> 100	–
Cc1cccc(C(=O)Oc2ccc(C=NNc3nc(N4CCCCC4)nc(N4CCCCC4)n3)cc2)c1 [Compound 181]	inactive	6	–
CCCCN(CCCC)c1nc(NN=Cc2ccc3c(c2)OCO3)nc(Nc2ccc([N+](=O)[O-])cc2)n1 [Compound 11]	inactive	3.9	–
CC(=NNc1nc(Nc2ccccc2)nc(N2CCCC2)n1)c1ccc(F)cc1 [Compound 227]	inactive	> 100	–
CNc1nc(NN=Cc2ccccc2C(F)(F)F)nc(Nc2cccc(C(F)(F)F)c2)n1 [Compound 253]	–	18	IC50 [1]: 659 µM
Cc1ccc(C=NNc2nc(Nc3ccc([N+](=O)[O-])cc3)nc(Nc3ccccc3C)n2)cc1 [Compound 15]	inactive	0.5	–
